According to the supplement of paper PMC12420376:

Columns and labels:
[1] = test system: KURAMOCHI; assay: drug sensitivity score (DSS2) on cancer cell count; higher = more sensitive; extreme values may be limits of the assay; details: 72 h
Method in brief: (§1)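 Ovarian cancer cells were grown alone or in 1:1 direct co-culture with lung or skin fibroblasts. They were plated onto 384-well plates pre-spotted acoustically with 528 approved and investigational compounds at 5 concentrations, then treated for 72 h. Cells were fixed, immunostained for CK8/18 with Hoechst, and imaged at 10× (4 fields) to count cancer cells. A drug sensitivity score (DSS2) was derived in Breeze from 4-parameter logistic fits, with screen quality checked by Z'.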

[2] = test system: OVCAR8; assay: as above; details: 72 h
Method in brief: as §1

[3] = co-cultured fibroblast: BJHTERT
[4] = co-cultured fibroblast: none (monoculture)

Row | SMILES | drug sensitivity score [1, 3] [DSS] | drug sensitivity score ([1]; co-cultured fibroblast: WI38) [DSS] | drug sensitivity score [1, 4] [DSS] | drug sensitivity score [2, 3] [DSS] | drug sensitivity score ([2]; co-cultured fibroblast: WI38) [DSS] | drug sensitivity score [2, 4] [DSS]
1 | Cc1c2oc3c(C)ccc(C(=O)N[C@@H]4C(=O)N[C@H](C(C)C)C(=O)N5CCC[C@H]5C(=O)N(C)CC(=O)N(C)[C@@H](C(C)C)C(=O)O[C@@H]4C)c3nc-2c(C(=O)N[C@@H]2C(=O)N[C@H](C(C)C)C(=O)N3CCC[C@H]3C(=O)N(C)CC(=O)N(C)[C@@H](C(C)C)C(=O)O[C@@H]2C)c(N)c1=O [Dactinomycin] | 25.7 | 25.9 | 34 | 31.6 | 32.4 | 31.8
2 | Cn1c(=O)n(-c2ccc(C(C)(C)C#N)cc2)c2c3cc(-c4cnc5ccccc5c4)ccc3ncc21 [Dactolisib] | 12.4 | 15.5 | 20.5 | 13.3 | 8.2 | 17.6
3 | CO[C@@H](C(=O)N1Cc2[nH]nc(NC(=O)c3ccc(N4CCN(C)CC4)cc3)c2C1)c1ccccc1 [Danusertib] | 22.9 | 20.9 | 28.6 | 15 | 19.2 | 21
4 | O=C(/C=C/c1cccnc1)NCCCCC1CCN(C(=O)c2ccccc2)CC1 [Daporinad] | 16 | 12.6 | 20.4 | 22.5 | 22.2 | 27.1
5 | CCN(CC)CCN(Cc1ccc(-c2ccc(C(F)(F)F)cc2)cc1)C(=O)Cn1c(SCc2ccc(F)cc2)nc(=O)c2c1CCC2 [Darapladib] | 0 | 0 | 0 | 0 | 8.3 | 0.4
6 | Cc1nc(Nc2ncc(C(=O)Nc3c(C)cccc3Cl)s2)cc(N2CCN(CCO)CC2)n1 [Dasatinib] | 18.4 | 17 | 20.4 | 13.6 | 21.9 | 21.9
7 | COc1cccc2c1C(=O)c1c(O)c3c(c(O)c1C2=O)C[C@@](O)(C(C)=O)C[C@@H]3O[C@H]1C[C@H](N)[C@H](O)[C@H](C)O1 [Daunorubicin] | 11.9 | 14.6 | 13.9 | 14.7 | 15.9 | 15.1
8 | CC[C@@](C)(Nc1ccnc(-c2c[nH]c3ncccc23)n1)C(=O)NCC(F)(F)F [Decernotinib] | 0 | 3.3 | 0 | 0 | 0 | 0
9 | Nc1ncn([C@H]2C[C@H](O)[C@@H](CO)O2)c(=O)n1 [Decitabine] | 0 | 1.7 | 0.3 | 6.9 | 11.4 | 4.8
10 | CC(=O)N(O)CCCCCNC(=O)CCC(=O)N(O)CCCCCNC(=O)CCC(=O)N(O)CCCCCN [Deferoxamine] | 4.5 | 7.3 | 1.6 | 3.6 | 3.5 | 7.7
11 | C[C@H]1O[C@@H](O[C@H]2[C@@H](O)C[C@H](O[C@H]3[C@@H](O)C[C@H](O[C@H]4CC[C@@]5(C)[C@H](CC[C@@H]6[C@@H]5C[C@@H](O)[C@]5(C)[C@@H](C7=CC(=O)OC7)CC[C@]65O)C4)O[C@@H]3C)O[C@@H]2C)C[C@H](O)[C@@H]1O [Digoxin] | 8.6 | 10.9 | 14.2 | 14.9 | 11.6 | 12.7
12 | CCc1cnn2c(NCc3ccc[n+]([O-])c3)cc(N3CCCC[C@H]3CCO)nc12 [Dinaciclib] | 17.2 | 23.9 | 23 | 26.4 | 17.1 | 23.1
13 | CC(=O)O[C@@]12CO[C@@H]1C[C@H](O)[C@@]1(C)C(=O)[C@H](O)C3=C(C)[C@@H](OC(=O)[C@H](O)[C@@H](NC(=O)OC(C)(C)C)c4ccccc4)C[C@@](O)([C@@H](OC(=O)c4ccccc4)[C@H]21)C3(C)C [Docetaxel] | 27.4 | 26.2 | 21.1 | 31.8 | 31.9 | 28.3
14 | Cc1ccc(-n2nc(C(C)(C)C)cc2NC(=O)Nc2ccc(OCCN3CCOCC3)c3ccccc23)cc1 [Doramapimod] | 4.2 | 3.4 | 2.8 | 4.4 | 0.1 | 1.4
15 | CN1CCN(c2ccc3nc(-c4c(N)c5c(F)cccc5[nH]c4=O)[nH]c3c2)CC1 [Dovitinib] | 0 | 0 | 0 | 0.5 | 0 | 0.3
16 | COc1cccc2c1C(=O)c1c(O)c3c(c(O)c1C2=O)C[C@@](O)(C(=O)CO)C[C@@H]3O[C@H]1C[C@H](N)[C@H](O)[C@H](C)O1 [Doxorubicin] | 10.7 | 12.7 | 25.1 | 12.5 | 12.3 | 12.1
17 | C[C@H](Nc1ncnc2nc[nH]c12)c1cc2cccc(Cl)c2c(=O)n1-c1ccccc1 [Duvelisib] | 4.6 | 0.5 | 0.3 | 0.4 | 0 | 0

Row | SMILES | drug sensitivity score [1, 3] [DSS] | drug sensitivity score ([1]; co-cultured fibroblast: WI38) [DSS] | drug sensitivity score [1, 4] [DSS] | drug sensitivity score [2, 3] [DSS] | drug sensitivity score ([2]; co-cultured fibroblast: WI38) [DSS] | drug sensitivity score [2, 4] [DSS]
18 | Cc1ccc(NS(=O)(=O)c2cccc(C#N)c2)c2[nH]cc(C#N)c12 [E7820] | 6.5 | 9.7 | 15.8 | 5.4 | 0 | 12.8
19 | Cc1cc(Nc2cc(N3CCN(C)CC3)nc(/C=C/c3ccccc3)n2)n[nH]1 [ENMD-2076] | 11.1 | 8.4 | 3.7 | 13.1 | 8.6 | 10.6
20 | Cc1cc(C)c(CNC(=O)c2cc(-c3ccc(CN4CCOCC4)cc3)cc3c2cnn3C2CCCC2)c(=O)[nH]1 [EPZ-5687] | 0 | 0 | 0 | 0 | 0 | 2.7
21 | NC(=O)/C(=C/n1cnc(-c2cc(C(F)(F)F)cc(C(F)(F)F)c2)n1)c1cncnc1 [Eltanexor] | 20 | 20.8 | 26.5 | 26.7 | 24.4 | 26.8
22 | CC(C)(O)CNc1nc(Nc2ccnc(C(F)(F)F)c2)nc(-c2cccc(C(F)(F)F)n2)n1 [Enasidenib] | 0.3 | 0 | 0 | 0 | 0 | 0
23 | COC(=O)N[C@@H](C)CNc1nccc(-c2cn(C(C)C)nc2-c2cc(Cl)cc(NS(C)(=O)=O)c2F)n1 [Encorafenib] | 0 | 0 | 0 | 0 | 0 | 0.1
24 | C[C@@H]1CN(C(=O)c2ccc(NC(=O)c3cc(O[C@H](C)c4c(Cl)ccc(F)c4Cl)c(N)nn3)cc2)C[C@H](C)N1 [Ensartinib] | 1 | 1 | 0 | 0 | 0.1 | 0
25 | Nc1ccccc1NC(=O)c1ccc(CNC(=O)OCc2cccnc2)cc1 [Entinostat] | 6 | 14.3 | 9.2 | 8.5 | 11.7 | 11.1
26 | c1cn2cc(-c3ccc4cn[nH]c4c3)nc(Nc3ccc(N4CCOCC4)cc3)c2n1 [Entospletinib] | 0 | 1.4 | 0 | 1.2 | 0 | 0
27 | CN1CCN(c2ccc(C(=O)Nc3n[nH]c4ccc(Cc5cc(F)cc(F)c5)cc34)c(NC3CCOCC3)c2)CC1 [Entrectinib] | 2.1 | 0.3 | 1.4 | 0 | 4 | 0
28 | CNC(=O)c1ccc(N2C(=S)N(c3ccc(C#N)c(C(F)(F)F)c3)C(=O)C2(C)C)cc1F [Enzalutamide] | 0 | 0 | 1.3 | 0 | 0 | 2.2
29 | Cn1cc(C2=C(c3cn(C4CCN(Cc5ccccn5)CC4)c4ccccc34)C(=O)NC2=O)c2ccccc21 [Enzastaurin] | 0 | 0.6 | 0 | 0 | 6.4 | 0
30 | NS(=O)(=O)NCCNc1nonc1/C(=N/O)Nc1ccc(F)c(Br)c1 [Epacadostat] | 0 | 0 | 0 | 0 | 0 | 0.6
31 | COc1cccc2c1C(=O)c1c(O)c3c(c(O)c1C2=O)C[C@@](O)(C(=O)CO)C[C@@H]3O[C@H]1C[C@H](N)[C@@H](O)[C@H](C)O1 [Epirubicin] | 12.2 | 12.7 | 19.2 | 14.7 | 9 | 12.3
32 | CCOc1ccccc1-n1c(C(C)N2CCN(C(=O)COc3ccc(Cl)cc3)CC2)nc2ccccc2c1=O (centres undefined) [Erastin] | 3.6 | 3.9 | 2.6 | 17.9 | 18.6 | 7.4
33 | COc1cc(OC)cc(N(CCNC(C)C)c2ccc3ncc(-c4cnn(C)c4)nc3c2)c1 [Erdafitinib] | 0 | 0 | 0 | 0 | 0 | 0
34 | C=C1C[C@@H]2CC[C@@]34C[C@H]5O[C@H]6[C@@H](O3)[C@H]3O[C@H](CC[C@@H]3O[C@H]6[C@H]5O4)CC(=O)C[C@@H]3[C@@H](OC)[C@@H](C[C@H](O)CN)O[C@H]3C[C@H]3O[C@@H](CC[C@@H]1O2)C[C@@H](C)C3=C [Eribulin] | 28.8 | 26.9 | 27.5 | 27.5 | 29.9 | 26.6
